{"source": "ChEMBL document CHEMBL4342488", "about": "“Structure-Activity Relationship Study of Covalent Pan-phosphatidylinositol 5-Phosphate 4-Kinase Inhibitors” (ACS Med Chem Lett, 2020)", "key": {"[1]": {"biological_target": "T1, Phosphatidylinositol 5-phosphate 4-kinase type-2 gamma (Homo sapiens, UniProt Q8TBX8)", "T1 sequence (Q8TBX8 whole entry)": "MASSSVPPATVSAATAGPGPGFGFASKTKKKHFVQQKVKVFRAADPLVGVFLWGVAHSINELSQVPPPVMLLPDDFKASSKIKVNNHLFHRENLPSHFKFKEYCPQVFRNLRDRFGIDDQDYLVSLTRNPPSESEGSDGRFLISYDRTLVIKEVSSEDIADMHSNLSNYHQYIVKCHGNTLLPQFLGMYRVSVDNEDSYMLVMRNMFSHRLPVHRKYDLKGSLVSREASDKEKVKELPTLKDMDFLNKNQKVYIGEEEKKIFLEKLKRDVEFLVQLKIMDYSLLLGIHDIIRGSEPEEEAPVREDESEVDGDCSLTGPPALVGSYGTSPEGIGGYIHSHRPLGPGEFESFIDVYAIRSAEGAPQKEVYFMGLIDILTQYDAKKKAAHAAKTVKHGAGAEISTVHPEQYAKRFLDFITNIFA", "experiment": "Inhibition of PI5P4Kgamma (unknown origin); call rule not given here"}, "[2]": {"biological_target": "T2, Phosphatidylinositol 5-phosphate 4-kinase type-2 alpha (Homo sapiens, UniProt P48426)", "T2 sequence (P48426 whole entry)": "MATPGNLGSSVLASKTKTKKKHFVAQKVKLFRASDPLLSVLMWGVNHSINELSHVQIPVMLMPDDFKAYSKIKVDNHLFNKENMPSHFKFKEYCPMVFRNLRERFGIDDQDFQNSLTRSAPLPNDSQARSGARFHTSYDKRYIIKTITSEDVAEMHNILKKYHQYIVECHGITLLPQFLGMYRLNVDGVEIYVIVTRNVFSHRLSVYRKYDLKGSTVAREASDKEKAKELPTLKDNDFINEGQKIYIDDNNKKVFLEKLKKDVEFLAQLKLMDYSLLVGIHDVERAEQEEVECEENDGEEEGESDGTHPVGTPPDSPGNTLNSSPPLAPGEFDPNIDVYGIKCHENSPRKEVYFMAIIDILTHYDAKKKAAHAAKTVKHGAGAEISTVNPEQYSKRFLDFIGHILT", "experiment": "Inhibition of PI5P4Kalpha (unknown origin) incubated for 15 mins in presence of ATP by ADP-Glo assay"}, "[3]": {"biological_target": "T3, Phosphatidylinositol 5-phosphate 4-kinase type-2 beta (Homo sapiens, UniProt P78356)", "T3 sequence (P78356 whole entry)": "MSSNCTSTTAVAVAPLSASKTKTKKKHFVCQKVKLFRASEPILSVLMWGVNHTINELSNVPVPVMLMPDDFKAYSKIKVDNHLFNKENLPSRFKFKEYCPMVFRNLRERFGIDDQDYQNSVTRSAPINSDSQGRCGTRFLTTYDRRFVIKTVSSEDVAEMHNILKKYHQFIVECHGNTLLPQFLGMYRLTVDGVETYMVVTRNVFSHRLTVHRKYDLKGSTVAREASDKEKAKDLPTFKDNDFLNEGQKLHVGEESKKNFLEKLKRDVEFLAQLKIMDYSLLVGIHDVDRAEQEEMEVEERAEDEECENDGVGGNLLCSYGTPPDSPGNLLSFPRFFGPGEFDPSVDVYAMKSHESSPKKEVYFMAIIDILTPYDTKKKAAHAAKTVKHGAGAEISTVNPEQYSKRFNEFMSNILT", "experiment": "Inhibition of PI5P4Kbeta (unknown origin) incubated for 15 mins in presence of ATP by ADP-Glo assay"}}}
{"smiles": "Cn1nnnc1Sc1ncnc2scc(-c3cccc(S(C)(=O)=O)c3)c12", "values": [{"measurement": "IC50", "setting": "[1]", "value": 15.8, "unit": "µM"}]}
{"smiles": "FC(F)(F)c1ccccc1-c1nc(NCc2cccs2)c2ccccc2n1", "values": [{"measurement": "IC50", "setting": "[1]", "value": 1, "unit": "µM"}]}
{"smiles": "Cc1ccc(-n2ccc3c(Nc4cccc(NC(=O)c5ccc(NC(=O)/C=C/CN(C)C)cc5)c4)ncnc32)cc1", "values": [{"measurement": "IC50", "setting": "[2]; read-out: IC50", "value": 1.34, "unit": "µM"}, {"measurement": "IC50", "setting": "[3]; read-out: IC50", "value": 9.9, "unit": "µM"}]}
{"smiles": "CN(C)C/C=C/C(=O)Nc1cccc(NC(=O)N2CCCC(Nc3cc(-c4cnc5[nH]ccc5c4)ncn3)C2)c1", "note": "(stereo unspecified)", "values": [{"measurement": "IC50", "setting": "[2]", "value": "Not Active"}, {"measurement": "IC50", "setting": "[3]", "value": "Not Active"}]}
